How the values were obtained:
Assay type in all cases: functional
Cyperus compressus = test: Herbicidal activity against Cyperus compressus assessed as disease control at 1000 ppm treated in paddy field during 15 to 20 days relative to control
Eleusine indica [1] = test: Herbicidal activity against Eleusine indica assessed as disease control at 1000 ppm treated in foliage during 15 to 20 days relative to control
Chenopodium album [2] = test: Herbicidal activity against Chenopodium album assessed as disease control at 1000 ppm treated in foliage during 15 to 20 days relative to control
Echinochloa crus-galli [3] = test: Herbicidal activity against Echinochloa crus-galli (barnyard grass) assessed as disease control at 1000 ppm treated in paddy field during 15 to 20 days relative to control
Persicaria hydropiper [4] = test: Herbicidal activity against Persicaria hydropiper assessed as disease control at 1000 ppm treated in foliage during 15 to 20 days relative to control
Xanthomonas axonopodis = test: Antibacterial activity against Xanthomonas axonopodis after 7 days; design: concentration or dose not given beside the values
Amaranthus viridis [5] = test: Herbicidal activity against Amaranthus viridis assessed as disease control at 1000 ppm treated in foliage during 15 to 20 days relative to control
Echinochloa crus-galli [6] = test: Herbicidal activity against Echinochloa crus-galli (barnyard grass) assessed as disease control at 1000 ppm treated in soil during 15 to 20 days relative to control
[7] = tested on: Pseudoperonospora cubensis; test: Antifungal activity against Pseudoperonospora cubensis after 7 days; design: concentration or dose not given beside the values
Amaranthus viridis [8] = test: Herbicidal activity against Amaranthus viridis assessed as disease control at 1000 ppm treated in soil during 15 to 20 days relative to control
Oryza sativa = test: Herbicidal activity against Oryza sativa assessed as disease control at 1000 ppm treated in paddy field during 15 to 20 days relative to control
Fusarium fujikuroi = test: Antifungal activity against Fusarium fujikuroi after 7 days; design: concentration or dose not given beside the values
Pyricularia oryzae = test: Antifungal activity against Magnaporthe oryzae after 7 days; design: concentration or dose not given beside the values
Chenopodium album [9] = test: Herbicidal activity against Chenopodium album assessed as disease control at 1000 ppm treated in soil during 15 to 20 days relative to control
Persicaria hydropiper [10] = test: Herbicidal activity against Persicaria hydropiper assessed as disease control at 1000 ppm treated in soil during 15 to 20 days relative to control
Eleusine indica [11] = test: Herbicidal activity against Eleusine indica assessed as disease control at 1000 ppm treated in soil during 15 to 20 days relative to control
Botrytis cinerea = test: Antifungal activity against Botryotinia fuckeliana after 7 days; design: concentration or dose not given beside the values
Echinochloa crus-galli [12] = test: Herbicidal activity against Echinochloa crus-galli (barnyard grass) assessed as disease control at 1000 ppm treated in foliage during 15 to 20 days relative to control

Compound | Activity (Cyperus compressus) | Activity (Eleusine indica [1]) | Activity (Chenopodium album [2]) | Activity (Echinochloa crus-galli [3]) | Activity (Persicaria hydropiper [4]) | Activity (Xanthomonas axonopodis) | Activity (Amaranthus viridis [5]) | Activity (Echinochloa crus-galli [6]) | Activity [7] | Activity (Amaranthus viridis [8]) | Activity (Oryza sativa) | Activity (Fusarium fujikuroi) | Activity (Pyricularia oryzae) | Activity (Chenopodium album [9]) | Activity (Persicaria hydropiper [10]) | Activity (Eleusine indica [11]) | Activity (Botrytis cinerea) | Activity (Echinochloa crus-galli [12])
c1ccc2nc(-c3nc4ccccc4o3)ccc2c1 | <39% | <39% | <39% | <39% | <39% | <39% | <39% | <39% | <39% | <39% | 40% | <39% | <39% | <39% | <39% | <39% | <39% | <39%
c1ccc(-c2nc3ccccc3o2)nc1 | 40% | <39% | <39% | <39% | <39% | <39% | <39% | <39% | <39% | <39% | <39% | <39% | <39% | <39% | <39% | <39% | <39% | <39%
COc1ccc2sc(-c3ccncc3)nc2c1 | 60% | <39% | <39% | <39% | <39% | <39% | <39% | <39% | <39% | <39% | <39% | <39% | <39% | <39% | <39% | <39% | <39% | <39%
CCOc1ccc2sc(-c3ccncc3)nc2c1 | >80% | <39% | <39% | <39% | <39% | <39% | <39% | <39% | <39% | <39% | <39% | <39% | <39% | <39% | <39% | <39% | <39% | <39%
c1ccc2nc(-c3nc4ccccc4s3)ccc2c1 | <39% | <39% | <39% | <39% | <39% | <39% | <39% | <39% | <39% | <39% | <39% | <39% | <39% | <39% | <39% | <39% | <39% | <39%
c1ccc2oc(-c3nc4ccccc4s3)nc2c1 | <39% | <39% | <39% | <39% | <39% | <39% | <39% | <39% | <39% | <39% | <39% | <39% | <39% | <39% | <39% | <39% | <39% | <39%
c1ccc2oc(-c3ccncc3)nc2c1 | <39% | <39% | <39% | 40% | <39% | <39% | <39% | <39% | <39% | <39% | <39% | 60% | <39% | <39% | <39% | <39% | 40% | <39%
COc1ccc2[nH]c(-c3ccncc3)nc2c1 | <39% | <39% | <39% | <39% | <39% | 60% | <39% | <39% | 40% | <39% | <39% | <39% | >80% | <39% | <39% | <39% | 60% | <39%
Cc1cccc2[nH]c(-c3ccccn3)nc12 | <39% | <39% | <39% | <39% | <39% | <39% | <39% | <39% | <39% | <39% | <39% | <39% | 40% | <39% | <39% | <39% | 60% | <39%
O=[N+]([O-])c1cccc2nc(-c3ccccn3)[nH]c12 | <39% | <39% | <39% | <39% | <39% | <39% | <39% | <39% | <39% | <39% | <39% | <39% | 40% | <39% | <39% | <39% | <39% | <39%
COc1ccc2sc(-c3ccccn3)nc2c1 | 60% | <39% | <39% | <39% | <39% | <39% | 40% | <39% | <39% | <39% | 40% | <39% | <39% | <39% | <39% | <39% | <39% | <39%
CCOc1ccc2sc(-c3ccccn3)nc2c1 | 40% | <39% | 60% | 40% | <39% | <39% | 40% | <39% | <39% | <39% | <39% | <39% | <39% | <39% | <39% | <39% | <39% | <39%

From ChEMBL document CHEMBL3045339, “Synthesis of benzoxazoles, benzothiazoles and benzimidazoles and evaluation of their antifungal, insecticidal and herbicidal activities” (1992)
